21 compounds from patent US12600724B2, “Indole alkaloid and preparation method and use thereof” (NANJING UNIVERSITY OF CHINESE MEDICINE, priority 2022, dated 2026) can be followed below.

Broadly, the fold induction is the ratio of treated to control signal. A high value points to a large rise in signal.

The first test relates to primary DRG neuron. As to the kind of experiment: Axon growth of primary DRG neurons (immunofluorescence, Neuro J). In kind it is cell-based, C57BL/6J mice. Conditions: 10 μm, 24 hours. On the procedure: Diabetic peripheral neuropathy involved a sensory neuron first, and a main pathological change was axonal atrophy and degeneration, or even disappearance. […] Therefore, the compounds in the examples were added with the primary DRG neuron to incubate for a certain period of time, then the axon growth of the DRG neuron was detected by immunofluorescence, and an axon length was quantified by Neuro J, so as to evaluate the promotion effect of the compound on the axon growth of the peripheral sensory neuron.
Primary antibodies of mice anti-β-tubulin III used for fluorescent staining were purchased from Sigma Company, cell culture reagents were all purchased from Gibco Company, and DRG neuronal cells were taken from C57BL/6J mice. Specific experimental steps were as follows: fresh DRG of the C57 mice was extracted to digest into a single-cell suspension and then inoculated into a culture plate for adherent culture overnight, with vinblastine as a positive drug, the to-be-detected compounds S1 to S87 ([…]) synthesized in the above examples were given to incubate for 24 hours, then an original culture medium was removed, 4% paraformaldehyde was added into each well to fix for 15 minutes after PBS washing, the mixture was permeabilized with 0.3% TritonX-100 for 5 minutes and sealed at room temperature with 4% BSA for 1 hour, a primary antibody (1:1000) was incubated at 4° C. overnight, a goat anti-mouse fluorescent secondary antibody (1:300) was incubated at room temperature in the dark for 1 hour, and a sealed slide was imaged by a fluorescence microscope (Leica). According to the image, a total axon length of a single DRG neuron was tracked by a Neuro J plug-in in Image J software, and a multiple of the total axon length relative to that of the blank control group was calculated.
For the compound `CC[C@@]12C=C(C(=O)NCC(=O)O)n3c4c(c5ccccc53)CCN(CCC1)[C@H]42` [Compound S66], the “Promotion of axon growth of the primary DRG neuron compared with the positive drug (in words)” value is listed as “more outstanding effect”.

The same test, now with this note: Mus musculus, 24 hours, multiple of total axon length of a single DRG neuron relative to blank control group.
Compound `CC[C@@]12C=C(C(=O)N[C@@H](CO)C(=O)OC)n3c4c(c5ccccc53)CCN(CCC1)[C@H]42` [Compound S85] had a fold induction at 10 µM of 11.8.
On the same count and under the same terms, the same measure for `CC[C@@]12C=C(C(=O)NCC(=O)N[C@@H](CO)C(=O)OCCOCCOCCOCCO)n3c4c(c5ccccc53)CCN(CCC1)[C@H]42` [Compound S48]: 11.4; for `CC[C@@]12C=C(C(=O)NCC(=O)N[C@@H](CC(C)C)C(=O)O)n3c4c(c5ccccc53)CCN(CCC1)[C@H]42` [Compound S79]: 10.6; for `CC[C@@]12C=C(C(=O)NCC(=O)N[C@H](C(=O)O)C(C)C)n3c4c(c5ccccc53)CCN(CCC1)[C@H]42` [Compound S80]: 11.3.
In turn, `CC[C@@]12C=C(C(=O)N[C@H](C(=O)OCCOCCOCCOCCO)C(C)C)n3c4c(c5ccccc53)CCN(CCC1)[C@H]42` [Compound S30] gave a fold induction at 10 µM of 12.6.
Still for that read-out and setting: the same measure for `CC[C@@]12C=C(C(=O)N[C@H](C(=O)OC)C(C)C)n3c4c(c5ccccc53)CCN(CCC1)[C@H]42` [Compound S84]: 11.
The same measure, in the same setting: as for `CC[C@@]12C=C(C(=O)OCCC(=O)OCCOCCOCCOCCOCCO)n3c4c(c5ccccc53)CCN(CCC1)[C@H]42` [Compound S59], the figure is 10.6.
Same read-out and setting: as for `CC[C@@]12C=C(C(=O)N(CC(=O)OCCOCCOCCOCCO)C3CC3)n3c4c(c5ccccc53)CCN(CCC1)[C@H]42` [Compound S64], the figure is 11.3.
Take `CC[C@@]12C=C(C(=O)NCC(=O)O)n3c4c(c5ccccc53)CCN(CCC1)[C@H]42` [Compound S66]: the fold induction at 10 µM was determined as 12.8.
Still for that read-out and setting: as for `CC[C@@]12C=C(C(=O)N[C@@H](Cc3ccc(O)cc3)C(=O)OCCOCCOCCOCCO)n3c4c(c5ccccc53)CCN(CCC1)[C@H]42` [Compound S44], the figure is 9.9.
Still for that read-out and setting: as for `CC[C@@]12C=C(C(=O)N[C@H](C(=O)O)C(C)O)n3c4c(c5ccccc53)CCN(CCC1)[C@H]42` (stereo partly shown) [Compound S69], the figure is 12.3.
Turning to `CC[C@@]12C=C(C(=O)NCC(=O)N[C@@H](CS)C(=O)O)n3c4c(c5ccccc53)CCN(CCC1)[C@H]42` [Compound S76], the fold induction at 10 µM is 11.1.
Still for that read-out and setting: the same measure for `CC[C@@]12C=C(C(=O)N[C@@H](CC(=O)O)C(=O)OCCOCCOCCOCCO)n3c4c(c5ccccc53)CCN(CCC1)[C@H]42` [Compound S42]: 10.3; for `CC[C@@]12C=C(C(=O)OCCC(=O)OCCOCCOCCOCCO)n3c4c(c5ccccc53)CCN(CCC1)[C@H]42` [Compound S58]: 11.4; for `CC[C@]12CCCN3CCc4c(n(c5ccccc45)[C@@](O)(C(=O)OC)C1)[C@@H]32` [Vincamine, reference compound]: 9.5.
The same measure, in the same setting: the same measure for `CC[C@@]12C=C(C(=O)N[C@@H](CO)C(=O)O)n3c4c(c5ccccc53)CCN(CCC1)[C@H]42` [Compound S68]: 11.
The same measure, in the same setting: the same measure for `CC[C@@]12C=C(C(=O)N(C)CC(=O)OCCOCCOCCOCCO)n3c4c(c5ccccc53)CCN(CCC1)[C@H]42` [Compound S63]: 10.9.
Consider `CC[C@@]12C=C(C(=O)NCC(=O)N[C@@H](CC(C)C)C(=O)OCCOCCOCCOCCO)n3c4c(c5ccccc53)CCN(CCC1)[C@H]42` [Compound S51], for which the fold induction at 10 µM came out at 9.8.
`CC[C@@]12C=C(C(=O)N[C@@H](Cc3ccccc3)C(=O)OCCOCCOCCOCCOC)n3c4c(c5ccccc53)CCN(CCC1)[C@H]42` [Compound S14] came in with a fold induction at 10 µM of 10.5.
Same read-out and setting: as for `CC[C@@]12C=C(C(=O)OCCC(=O)OCCO)n3c4c(c5ccccc53)CCN(CCC1)[C@H]42` [Compound S53], the figure is 9.9.
Still for that read-out and setting: the same measure for `CC[C@@]12C=C(C(=O)N[C@@H](Cc3ccccc3)C(=O)OCCOCCOCCOCCO)n3c4c(c5ccccc53)CCN(CCC1)[C@H]42` [Compound S33]: 10.9.
